Results from US4870060A, “Derivatives of γ-cylodextrin” (Janssen Pharmaceutica, priority 1988, dated 1989).
≈ marks a conversion by molar mass, not a printed value. One block for each compound: values may come before it.

Assays:
[1] = content of 3-chloro-6-[3,6-dihydro-4-(3-methylphenyl)-1(2H)-pyridinyl]pyridazine in solutions of γ-CD derivatives (procedure of example 4); assay type: physicochemical
Description: (§1) Starting from a 5% stock solution of a particular γ-CD derivative in a phosphate buffer of pH 7.4, a dilution series was obtained with concentrations varying of from 0% to 5% with 0.5% steps. 3 ml of these solutions were pipetted into a closed container containing an appropriate amount of progesteron. After 5 days shaking at 25° C., the thus obtained mixture was filtered over a membrane filter (pore diameter: 0.22 μm), and the content of progesteron was determined with high pressure liquid chromatography (using a column of 25 cm length; 5 mm internal diameter; packed with 5 μm ODS-hypersil (RP-18); eluent: acetonitrile/water; U.V. detection). The results of these concentration measurements for a number of the γ-CD derivatives of the present invention and for unsubstituted γ-CD gathered in the following table.
Following the procedures described in example 4 the content of 3-chloro-6-[3,6-dihydro-4-(3-methylphenyl)-1(2H)-pyridinyl]pyridazine was determined in solutions containing various concentrations of γ-CD derivatives. Said pyridazine compound is described in Published Europ. Pat. Appl. No. 0,156,433 as a useful anti-viral agent.

[2] = content of progesteron dissolved in solutions of γ-CD derivatives (phosphate buffer pH 7.4, 5 days shaking at 25° C., HPLC); assay type: physicochemical; settings: phosphate buffer pH 7.4, 25° C.
Description: as §1

[3] = cited from earlier work
[4] = 1% γ-CD or derivative (weight by volume)
[5] = 2.5% γ-CD or derivative (weight by volume)
[6] = 5% γ-CD or derivative (weight by volume)

solubility thermodynamic at 120 h ([1]; phosphate buffer ph 7.4, pH 7.4, aqueous buffer, 0% γ-CD derivative (weight by volume)): 0.4 µg/mL (≈ 1.4 µM)
SMILES: Cc1cccc(C2=CCN(c3ccc(Cl)nn3)CC2)c1 [3-chloro-6-[3,6-dihydro-4-(3-methylphenyl)-1(2H)-pyridinyl]pyridazine]

solubility thermodynamic at 120 h ([2]; aqueous buffer, 0% γ-CD derivative (weight by volume)): 5.9 µg/mL (≈ 18.8 µM)
SMILES: CC(=O)[C@H]1CC[C@H]2[C@@H]3CCC4=CC(=O)CC[C@]4(C)[C@H]3CC[C@]12C [progesteron]

SMILES: OC[C@H]1O[C@@H]2O[C@H]3[C@H](O)[C@@H](O)[C@@H](O[C@H]4[C@H](O)[C@@H](O)[C@@H](O[C@H]5[C@H](O)[C@@H](O)[C@@H](O[C@H]6[C@H](O)[C@@H](O)[C@@H](O[C@H]7[C@H](O)[C@@H](O)[C@@H](O[C@H]8[C@H](O)[C@@H](O)[C@@H](O[C@H]9[C@H](O)[C@@H](O)[C@@H](O[C@H]1[C@H](O)[C@H]2O)O[C@@H]9CO)O[C@@H]8CO)O[C@@H]7CO)O[C@@H]6CO)O[C@@H]5CO)O[C@@H]4CO)O[C@@H]3CO [unsubstituted γ-CD, γ-cyclodextrin]
content of 3-chloro-6-[3,6-dihydro-4-(3-methylphenyl)-1(2H)-pyridinyl]pyridazine [1, 4]: 2.0 µg/mL
content of 3-chloro-6-[3,6-dihydro-4-(3-methylphenyl)-1(2H)-pyridinyl]pyridazine [1, 5]: 0.8 µg/mL
content of 3-chloro-6-[3,6-dihydro-4-(3-methylphenyl)-1(2H)-pyridinyl]pyridazine [1, 6]: 0.8 µg/mL
water solubility [3]: excellent water solubility
content of progesteron ([2]; 0.5% γ-CD or derivative (weight by volume)): 425 µg/mL
content of progesteron [2, 4]: 343 µg/mL
content of progesteron ([2]; 1.5% γ-CD or derivative (weight by volume)): 275 µg/mL
content of progesteron ([2]; 2% γ-CD or derivative (weight by volume)): 203 µg/mL
content of progesteron [2, 5]: 163 µg/mL
content of progesteron ([2]; 3% γ-CD or derivative (weight by volume)): 93 µg/mL
content of progesteron ([2]; 3.5% γ-CD or derivative (weight by volume)): 60 µg/mL
content of progesteron ([2]; 4% γ-CD or derivative (weight by volume)): 54 µg/mL
content of progesteron ([2]; 4.5% γ-CD or derivative (weight by volume)): 46 µg/mL
content of progesteron [2, 6]: 45 µg/mL
